Measured values from PMC9090566 (RSC Advances, 2018).

Molecular target: T4 polynucleotide kinase (T4 PNK) (Tequatrovirus T4, UniProt P06855)
Type: biochemical

Sequence of T4 polynucleotide kinase (T4 PNK) (P06855 whole entry): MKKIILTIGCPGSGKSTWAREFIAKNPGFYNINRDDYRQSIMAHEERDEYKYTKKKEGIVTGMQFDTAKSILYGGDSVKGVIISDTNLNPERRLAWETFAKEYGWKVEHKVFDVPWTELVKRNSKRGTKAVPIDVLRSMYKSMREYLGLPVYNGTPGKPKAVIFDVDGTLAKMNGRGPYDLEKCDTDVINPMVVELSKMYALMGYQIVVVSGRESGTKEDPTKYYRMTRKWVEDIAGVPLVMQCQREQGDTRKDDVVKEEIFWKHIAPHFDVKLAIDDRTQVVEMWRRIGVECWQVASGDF

IC50: 18 mM
SMILES: O=S(=O)(O)O [(NH4)2SO4]
